Entries after “also recorded” stand apart in the source; their conditions may differ. Marks after values point to notes of the source that are not given here.
What was measured:
IMG cells = assay: LPS-induced inflammation in IMG microglial cells (viability, nitrite, TNF-α); type: cell-based, mouse; conditions: 24 h
Description: (§1) IMG cell culture: Mouse immortalized microglial ‘IMG’ cells (Sigma-Aldrich; St. Louis, MO, USA; Cat # SCC-134, RRID:CVCL HC49) were cultured in High Glucose DMEM (Sigma Cat. No. D6546) with 10% heat-inactivated fetal bovine serum (Gibco™ Cat # 10082147), 1 × L-Glutamine (Sigma Cat # TMS-002-C) and 100 U/mL penicillin/streptomycin (Gibco™ Cat # 15140148). IMG cell subculturing was performed according to the product datasheet. In brief, cells were detached from culture plates with Accutase® (Sigma, Cat # A6964), collected, and centrifuged, with the cell pellet subsequently resuspended in media. The cells were then plated for experiments at specified densities and used for a maximum of 10 passages.
(§2) For cytokine/nitrite assessment studies, cells were grown in 24-well (40 K cells/well) tissue culture-treated plates in 500 μl of media. […] This LPS concentration induced a submaximal inflammatory response in IMG pilot studies. Following a 24 h incubation, conditioned media was collected and replaced with 500 μl fresh media to allow assessment of cell viability, TNF-α (ELISA MAX™ Deluxe Set Mouse TNF-α, BioLegend, CA, USA) and nitrite levels (Griess Reagent System, Promega, Madison, WI, USA), according to manufacturer’s instructions.

[1] = as above; type: cell-based, mouse; conditions: mouse, IMG immortalized microglial cells, IMG, 0.6 to 60 μM, LPS 10 ng/mL, MTS, read-out: cellular viability
Description: as §1, §2

[2] = ex vivo stability in mouse plasma; type: in vitro ADME; conditions: 100 μg/ml, room temperature, 0-180 min
Description: An ex vivo evaluation of drug stability was conducted in mouse and human plasma samples (WuXi AppTec, Shanghai, China). […] Samples were, thereafter, incubated at room temperature for 0, 15, 30, 60, 120, and 180 min before immediate drug extraction. […] Extraction was performed by adding ethyl acetate containing the internal standard (donepezil—known to undergo first-pass hepatic metabolism) to the spiked sample (100 μL), vortexed for 1 min, and centrifuged at 13,000 rpm, 4 °C for 10 min. The supernatant was used for LC–MS/MS analysis.
LC–MS/MS analysis was performed with a Vanquish Flex UHPLC (Thermo Scientific) and a Orbitrap Exploris 240 mass spectrometer (Thermo Scientific). Samples were separated on a C18 UHPLC column (100 mm × 2.1 mm, 3 μm; Thermo Scientific). The mobile phase A for LC separation was 0.1% formic acid and the mobile phase B was 0.1% formic acid in methanol. The chromatography gradient was designed for a linear increase from 5% B in 1 min, 5% B to 95% B in 8 min, 95% B in 3 min, and 5% B in 3 min. The flow rate was maintained at 0.3 mL/min. Mass spectra were acquired using the data-dependent Top 4 MS2 (ddMS2) method with a mass scan (100–1000 m/z) and 120,000 MS resolution.

chicken embryos = assay: chicken embryo teratogenicity at E2.5; type: in vivo
Description: All studies with chicken embryos were performed in line with UK Home Office regulations and followed guidelines, standards and practices governed by the University of Aberdeen Ethics Committee (Scotland, UK). Fertilized chicken eggs were acquired from Henry Stewart & Co Ltd, Norfolk UK. […] Embryos were incubated at 37 °C to reach E2.5 (early developmental stages). Eggs were then opened and the embryonic membranes protecting the embryos were removed with forceps. Chicken embryos usually lie on one side, so the left side is directly against the yolk and the right side can be observed. […] Consequent to limited drug diffusion when applied to the right side of an embryo, the right side is deemed the ‘treatment’ side and the left (facing internally towards the yolk sac) is considered normal after treatment and thus can act as an internal control.

[3] = 100 μg/ml; data derive from ref 64; cited from earlier work

## Nc1cccc2c1C(=S)N(C1CCC(=O)NC1=O)C2=O (stereo not shown) [3-MP, 3-monothiopomalidomide]
IMG cells; 100 μM, without LPS, vs vehicle control, MTS
  IMG cell viability: reduced
IMG cells; IMG, LPS 10 ng/mL, p < 0.001
  concentration significantly reducing LPS-induced TNF-α: ≥ 10 µM
IMG cells; IMG, LPS 10 ng/mL, p < 0.05
  concentration significantly reducing LPS-induced nitrite: ≥ 30 µM
[1]
  viability at 24 h: > 90%
[2]
  ex vivo stability in mouse plasma: stable
Chicken embryos; E2.5, 2.65 to 132 ug, 24 h exposure, vs DMSO controls
  developmental effect on chicken embryos: not teratogenic; also recorded: no adverse developmental differences or damage
Chicken embryos; E2.5, dose 2.65 ug, N 2, 24 h
  Normal embryos: 2
Chicken embryos; E2.5, dose 5.3 ug, N 3, 24 h
  Normal embryos: 3
Chicken embryos; E2.5, dose 20 ug, N 5, 24 h
  Normal embryos: 5
Chicken embryos; E2.5, dose 26.4 ug, N 7
  Not counted embryos (died soon after application, methodology-related): 2^a
Chicken embryos; E2.5, dose 26.4 ug, N 7, 24 h
  Normal embryos: 5
Chicken embryos; E2.5, dose 52.8 ug, N 5
  Not counted embryos (died soon after application, methodology-related): 2^a
Chicken embryos; E2.5, dose 52.8 ug, N 5, 24 h
  Normal embryos: 3
Chicken embryos; E2.5, dose 66 ug, N 3, 24 h
  Normal embryos: 3
Chicken embryos; E2.5, dose 132 ug, N 3, 24 h
  Normal embryos: 3
[3]
  ex vivo stability in human plasma: stable

Reference: article PMC12172326 (Journal of Biomedical Science, 2025)
